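Growth conditions: 96-well plates. Treatment: test compound, 48 hours, 5 concentrations. Analysis: linear interpolation between bracketing concentrations; unreached endpoints set to highest concentration. GI50 marks 50% less growth. TGI is the concentration that stops growth completely.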

Among the data in PubChem BioAssay (NCI) are GI50 and TGI values, retold here.

Some test systems named below: SK-OV-3 ovarian; SNB-19 CNS; MCF7 breast; T-47D breast; OVCAR-3 ovarian; SF-268 CNS; HCC-2998 colon; M14 melanoma; SR leukemia; MDA-MB-435.
Holding throughout (test): DTP human tumour cell line panel, 48 h

On to `COC(=O)N[C@H]1CCc2cc(OC)c(OC)c(OC)c2-c2ccc(SC)c(=O)cc21`, for which the GI50 with SK-OV-3 ovarian is less than 0.01 µM; in the assay with SNB-19 CNS, less than 0.01 µM; with MCF7 breast, less than 0.01 µM; in the assay with T-47D breast it was greater than 100 µM; with OVCAR-3 ovarian, less than 0.01 µM; with SF-268 CNS it was less than 0.01 µM. For the same compound, the GI50 in the assay on HCC-2998 colon, with M14 melanoma and with SR leukemia was less than 0.01 µM in each case. The TGI with SK-OV-3 ovarian, in the assay with SNB-19 CNS, in the assay with MCF7 breast, with T-47D breast, in the assay on SF-268 CNS and in the assay with HCC-2998 colon was greater than 100 µM each time. The results for the TGI in the assay on M14 melanoma and with SR leukemia were greater than 26.9 µM and greater than 100 µM, respectively.
As for `CCOc1ccc(N(C)c2ccc(/C=C/C3=[N+](C)c4ccccc4C3(C)C)cc2)cc1`, the GI50 was 0.354 µM in the assay with SK-OV-3 ovarian; 0.367 µM in the assay on SNB-19 CNS; 0.498 µM in the assay on MCF7 breast; 0.392 µM with T-47D breast; 0.151 µM in the assay on OVCAR-3 ovarian; 0.933 µM with SF-268 CNS. In addition, the GI50 in the assay with HCC-2998 colon is 0.391 µM; with MDA-MB-435 it was 0.231 µM; in the assay on M14 melanoma, 0.366 µM; in the assay with SR leukemia it was 0.0499 µM. Further, the TGI with SK-OV-3 ovarian is 1.44 µM; in the assay on SNB-19 CNS it was 1.8 µM; with MCF7 breast, 2.79 µM; in the assay with T-47D breast, 2.67 µM; in the assay on OVCAR-3 ovarian, 1.09 µM; in the assay with SF-268 CNS, 2.65 µM. The TGI in the assay with HCC-2998 colon turned out to be 1.55 µM; in the assay with MDA-MB-435, 1.32 µM; in the assay with M14 melanoma, 1.73 µM; in the assay on SR leukemia, 0.633 µM.
As to `CN1C(=O)C(c2c[nH]c3ccccc23)=C(c2c[nH]c3ccccc23)C1=O`, the GI50 was 12 µM in the assay with SK-OV-3 ovarian; 9.77 µM in the assay on SNB-19 CNS; 5.24 µM in the assay with MCF7 breast; 6.57 µM in the assay on T-47D breast; 7.03 µM in the assay with OVCAR-3 ovarian; 7.27 µM in the assay on SF-268 CNS. For the same compound, the GI50 in the assay with HCC-2998 colon is 5.46 µM; in the assay on MDA-MB-435, 5.49 µM; in the assay on M14 melanoma, 5.96 µM; in the assay with SR leukemia, 7.14 µM. The TGI is greater than 25 µM in the assay with SK-OV-3 ovarian; greater than 25 µM in the assay on SNB-19 CNS; greater than 24.1 µM in the assay with MCF7 breast; greater than 25 µM with T-47D breast; greater than 25 µM in the assay on OVCAR-3 ovarian; greater than 25 µM in the assay on SF-268 CNS. Also, the TGI with HCC-2998 colon is 13.1 µM; in the assay with MDA-MB-435, 16.2 µM; in the assay with M14 melanoma, 17.2 µM; in the assay on SR leukemia, greater than 25 µM.
On to `Cc1c2cnccc2c(C)c2c1c1ccccc1n2CCOC(=O)c1ccccc1`, for which the concentration for total growth inhibition (TGI) in the assay with SK-OV-3 ovarian was 25.5 µM; in the assay with SNB-19 CNS it was 40.2 µM; with MCF7 breast, 44.1 µM; in the assay on T-47D breast it was greater than 100 µM; in the assay on OVCAR-3 ovarian it was 28.8 µM; in the assay on SF-268 CNS, 79.5 µM. Moreover, the TGI in the assay on HCC-2998 colon was 29.8 µM; with MDA-MB-435, greater than 100 µM; in the assay with M14 melanoma, greater than 100 µM; in the assay on SR leukemia, 45.9 µM.
As to `CC(=O)OCC1C(=O)OCC1C(=O)N1Cc2cc3ccccc3nc2C1` (configuration not stated), the total growth inhibition concentration (TGI) with SK-OV-3 ovarian amounted to 31.1 µM; in the assay on SNB-19 CNS it was 32.8 µM; in the assay on MCF7 breast it was 3.14 µM; in the assay with T-47D breast it was 5.69 µM; with OVCAR-3 ovarian, 6.14 µM; in the assay with SF-268 CNS, 22.6 µM. Besides, the TGI in the assay with HCC-2998 colon came to 22.9 µM; in the assay with MDA-MB-435, 11.9 µM; in the assay on M14 melanoma, 3.67 µM; in the assay on SR leukemia, 10.7 µM.
As for `COc1ccc2c(c1)[C@@H](NC(C)=O)CCc1cc(OC)c(OC)c(OC)c1-2`, the TGI with SK-OV-3 ovarian is 4.1 µM; in the assay on SNB-19 CNS it was greater than 10.5 µM; in the assay with MCF7 breast it was greater than 100 µM; in the assay on T-47D breast, greater than 100 µM; in the assay on OVCAR-3 ovarian, less than 0.215 µM; with SF-268 CNS it was greater than 90.4 µM. Besides, the TGI with HCC-2998 colon is 13 µM; in the assay on MDA-MB-435, 0.0244 µM; in the assay on M14 melanoma, greater than 22.6 µM; with SR leukemia it was greater than 90.2 µM.
Take `COc1ccc(-c2nc3sc(-c4cc(OC)c(OC)c(OC)c4)nn3c2/C=C2/C(=O)Nc3ccc(F)cc32)cc1`: the GI50 was 2.84 µM with SK-OV-3 ovarian; 15.1 µM with SNB-19 CNS; 1.66 µM with MCF7 breast; 2.01 µM in the assay with T-47D breast; 2.32 µM in the assay on OVCAR-3 ovarian; 4.4 µM in the assay on SF-268 CNS. Further, the GI50 in the assay on HCC-2998 colon was 5.25 µM; in the assay with MDA-MB-435, 3.39 µM; with M14 melanoma, 5.51 µM; with SR leukemia it was 23.5 µM. For the same compound, the TGI was determined as 7.34 µM in the assay on SK-OV-3 ovarian; 44 µM in the assay with SNB-19 CNS; 6.32 µM with MCF7 breast; 5.16 µM in the assay on T-47D breast; 5.27 µM in the assay on OVCAR-3 ovarian; 33.1 µM in the assay on SF-268 CNS. In addition, the TGI in the assay with HCC-2998 colon was 22 µM; in the assay with MDA-MB-435, 14 µM; in the assay with M14 melanoma, 28.1 µM; in the assay with SR leukemia it was greater than 100 µM.
As to `O=C1C=C(Nc2ccccc2)c2ccccc2C1=O`, the GI50 in the assay on SK-OV-3 ovarian was 2.95 µM; in the assay on SNB-19 CNS, 2.2 µM; in the assay on MCF7 breast it was 1.88 µM; in the assay on T-47D breast, 3.17 µM; in the assay with OVCAR-3 ovarian, 1.96 µM; in the assay with SF-268 CNS, 2.67 µM. Further, the GI50 was 2.02 µM in the assay on HCC-2998 colon, 1.93 µM in the assay with MDA-MB-435, 1.96 µM with M14 melanoma and 3.22 µM with SR leukemia. In addition, the TGI with SK-OV-3 ovarian stood at 8.99 µM; in the assay on SNB-19 CNS it was 6.73 µM; in the assay with MCF7 breast it was 4.3 µM; in the assay with T-47D breast it was 9.88 µM; with OVCAR-3 ovarian, 5.27 µM; with SF-268 CNS, 8.71 µM. Further, the TGI in the assay on HCC-2998 colon is 4.62 µM; in the assay on MDA-MB-435, 3.7 µM; in the assay with M14 melanoma it was 3.65 µM; with SR leukemia, 12.4 µM.
Turning to `CC(C)=CCc1cc2c(cc1O)C1=C(C(=O)C3=C(NCCS3(=O)=O)C1=O)C(C=C(C)C)O2` (configuration not stated), the GI50 is greater than 16.7 µM in the assay with SK-OV-3 ovarian; 3.81 µM in the assay on SNB-19 CNS; 2.86 µM in the assay on MCF7 breast; 4.05 µM in the assay with T-47D breast; 2.13 µM in the assay on OVCAR-3 ovarian; 4.13 µM in the assay with SF-268 CNS. The GI50 was 9.25 µM with HCC-2998 colon, 2.89 µM with MDA-MB-435, 5.85 µM in the assay on M14 melanoma and 5.46 µM in the assay with SR leukemia. Also, the TGI was greater than 16.7 µM in the assay with SK-OV-3 ovarian; 11.9 µM with SNB-19 CNS; 7.84 µM with MCF7 breast; greater than 16.7 µM in the assay on T-47D breast; 10.1 µM with OVCAR-3 ovarian; greater than 16.7 µM in the assay on SF-268 CNS. Moreover, the TGI in the assay on HCC-2998 colon was greater than 16.7 µM; in the assay with MDA-MB-435, 5.6 µM; in the assay on M14 melanoma it was greater than 16.7 µM; with SR leukemia, greater than 16.7 µM.
